In assay [1] the test system is drill hole in the diaphyseal and metaphyseal bone. The experiment in a line: Sheep drill hole bone healing model, μCT evaluation of bone formation. It is filed as in vivo. The note with it: after 3 and 9 weeks, Iloprost in collagen scaffold (burst release), applied immediately, 1 ml Ilomedin per two scaffolds. The source says: Prior publications, e.g. US 20150164853 A1, stated that immediate use of Iloprost locally to enhance bone healing is beneficial. To investigate this a high dose of Iloprost was used in a sheep bone healing model where the agent was applied in a collagen scaffold, which has a burst-release dynamic.
Bone formation has been analyzed in a drill hole model (Establishment of a preclinical ovine screening model for the investigation of bone tissue engineering strategies in cancellous and cortical bone defects. Pobloth A M, Johnson K A, Schell H, Kolarczik N, Wulsten D, Duda G N, Schmidt-Bleek K. BMC Musculoskelet Disord. 2016 Mar. 1; 17:111.). The empty control group and the collagen only group were used as negative controls while the autologous spongiosa group, the current gold standard in bone therapy, was used as a positive control. In the Ilomedin group a supraphysiological dosis of 1 ml Iloprost (Ilomedin, […] Infusionslosung, Bayer Vital GmbH, Leverkusen, Deutschland) per two scaffolds was used.

Assay [2] deals with femur mouse osteotomies. Description: Mouse femur osteotomy with fibrin release system, μCT of newly formed bone. The assay is classed as in vivo.
Method: Mouse experiments were performed with 12-week-old C57BL/6 females (n=6, each sample type) (Charles River Laboratories) according to the policies and principles established by the Animal Welfare Act, the National Institutes of Health Guide for the Care and Use of Laboratory Animals, and the National Animal Welfare Guidelines. All animal experiments were approved by the local legal representative. Animals were kept under obligatory hygiene standards that were monitored according to the FELASA standards.
The osteotomy was performed on the left femur. After shaving and disinfecting the operation area of isoflurane-anesthetized animals, a lateral longitudinal incision of the skin (2 mm) from knee to hip was performed for a mid-diaphyseal approach to the femur. The femur was exposed by blunt preparation of Musculus vastus lateralis and Muscculus biceps femoris, carefully sparing the sciatic nerve. Serial drilling for pin placement (0.45 mm diameter) through the connector bar of the external fixator (MouseExFix, RlSystem, Davos, Switzerland) was performed, thus positioning the external fixator laterally in parallel to the femur. A 0.70 mm osteotomy was performed between the middle pins using a Gigli wire saw (RISystem, Davos, Switzerland). […]
The newly formed mineralized bone tissues were analyzed using high-resolution micro computed tomography (μCT). […]

“Also recorded” adds a separate entry of the source.

Consider `CC#CCC(C)[C@H](O)/C=C/[C@@H]1[C@H]2C/C(=C/CCCC(=O)O)C[C@H]2C[C@H]1O` (stereo partly drawn) [Iloprost], for which the “bone formation in a drill hole (μCT)” value in assay [1] is “No differences between the collagen group and the collagen Iloprost loaded group; also recorded: no enhanced bone formation was detectable”. In assay [2] (mouse femur osteotomy, 21 days healing, fibrin release system with 3 μM Iloprost in core, median, N=6, p=0.016 vs vehicle), the “newly formed bone volume (BV)” value was 1.347 mm^3. The “volumes of newly formed bone vs empty vehicle control (μCT)” value in assay [2] (mouse, after 21 days of regeneration, Iloprost loaded release system) is “significantly increased volumes of newly formed bone”.
